Measured values as given in patent publication US6599706B1, “Recombinant PR-3 and assays employing the same” (Chiron Corporation, priority 1994, dated 2003).
Where two headings read alike, the source gives them in different places. No end group written: not given here.

Columns and labels:
[1] = target: T1, PR-3 (Homo sapiens, UniProt P24158); conditions: cited from earlier work
T1 sequence (P24158 28-248): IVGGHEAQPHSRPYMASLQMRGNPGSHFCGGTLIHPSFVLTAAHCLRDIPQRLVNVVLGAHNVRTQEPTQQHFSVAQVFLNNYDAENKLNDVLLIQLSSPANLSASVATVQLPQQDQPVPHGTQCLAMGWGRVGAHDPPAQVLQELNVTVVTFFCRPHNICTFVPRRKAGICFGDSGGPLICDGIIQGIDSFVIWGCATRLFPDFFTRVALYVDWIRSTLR

[2] = target: T2, purified native PR-3 from human neutrophils (Homo sapiens, UniProt P24158); experiment: 35S-labelled 26 kD TNFα autoradiographic convertase assay with purified native PR-3; format: biochemical; conditions: PR-3 0.3 μg/ml preincubated 30 minutes
T2 construct: from tissue; host or cells: human blood neutrophils
T2 sequence (P24158 28-248): T1 sequence (P24158 28-248)
Protocol: (§1) ^35S-cysteine-labelled 26 kD TNFα was used to assay for convertase inhibitors as follows. 25 μl of in vitro translated material was combined with 250 μl of solution containing convertase activity partially purified from uninduced HL60 cells, plus compounds to be assayed for inhibitory activity. The convertase was produced by harvesting 2×10^9 HL60 cells, disrupting the cells, and isolating S-1 (supernatant fluid from a 100,000 ×g centrifugation) and P-30 (pellet from a 30,000×g centrifugation) fractions totalling 18 and 6 ml, respectively. 250 μl of the P-30 fraction was used, although the S-1 fraction may also be used. The assay was carried out at 30° C. for 1 hour, essentially as described above. Next, the reaction mixture was immunoprecipitated with rabbit anti-human TNFα polyclonal antisera (produced from TNFα made in E. coli) and protein A Sepharose, pelleted and washed. The bound protein was eluted and electrophoresed using SDS-PAGE. The gel was fixed in 40% methanol, 10% acetic acid, soaked in Enlightening (Dupont), dried, and exposed to X-ray film which was subsequently developed.
The above assay was also used with purified native PR-3 from human neutrophils to test a variety of proteinase inhibitors for their ability to inhibit TNFα convertase activity, as shown in FIG. 5. Purified PR-3 (0.3 μg/ml) was preincubated for 30 minutes with the following inhibitors prior to addition of ^35S-labelled 26 kD-TNFα, and then assayed as described above: DCI (45 μM), α-2-macroglobulin (1 mg/ml), PMSF (20 μM), leupeptin (2 μg/ml), EDTA (10 mM), or pepstatin (2 μg/ml).

[3] = target: T1, PR-3; experiment: Inhibition of PR-3, summary statement of the assays shown below; format: biochemical
Source text: As shown below, PR-3 is inhibited by peptide diphenyl phosphonate inhibitors, elastinal, and dichloro-isocoumarin (DCI). The peptide diphenyl phosphonate inhibitors include Boc-Val-Pro-Val-p(OPh)2 and Boc-Ala-Pro-Val-p(OPh)2 (BOC-butoxycarbonyl). […] “Boc” means N-tert-butoxycarbonyl and “p(OPh)2” represents the diphenyl phosphonate moiety, wherein the formula—COOH group is replaced with P(=0)-(O-phenyl)2. See Oleksyszyn et al., Biochem 30:485 (1991). It will be appreciated that other peptide diphenyl phosphonate molecules may inhibit PR-3. Potential inhibitors may be constructed using the procedures shown in Oleksyszyn et al., supra, using small aliphatic peptides, for an example. Once the potential inhibitors are made, they may be tested in the assays shown below.

[4] = target: T3, TNFα convertase/PR-3 (purified native PR-3) (Homo sapiens, UniProt P24158); experiment: Colorimetric Boc-Ala-ONp assay for convertase inhibition; format: biochemical
T3 construct: from tissue; host or cells: human blood neutrophils
T3 sequence (P24158 28-248): T1 sequence (P24158 28-248)
Protocol: TNFα convertase inhibition can also be measured by a colorimetric assay. In this type of assay, the actual activity of TNFα convertase is measured directly using a colorimetric TNFα convertase substrate. […] One such substrate is Boc-Ala-ONp (Bachem Bioscience, Inc., Philadelphia, Pa.). Other potentially useful substrates can be predicted from the structure of TNFα convertase and other serine proteases. Although the example herein uses purified native PR-3 as the TNFα convertase, it is contemplated that recombinant PR-3 or other TNFα convertases can be used in this assay as well.
Peptide diphenyl phosphonate inhibitors were synthesized and stored as lyophilized solids as described in Oleksyszyn and Powers, Biochem 30:485-493 (1991). Inhibitor solutions (10 mg/ml) were prepared in 100% dimethyl sulfoxide (DMSO) and diluted into aqueous buffers upon initiation of the experiments. 3,4, dichloro-isocoumarin was purchased from CalBiochem. Purified PR-3 (10 μl, 0.1 mg/ml) was mixed with varying concentrations of protease inhibitor ([…]) in 20 mM sodium phosphate buffer, pH 7.0, containing 0.1 M sodium chloride. Aliquots (40 μl) were removed at selected times and diluted 1/10 into a colorimetric assay for convertase, containing 0.5-1 mM Boc-Ala-ONp (prepared fresh from a 50 mM stock in 100% methanol) in 0.02 M sodium phosphate buffer, pH 7.0, 0.1 M sodium chloride. The increase in absorbance was monitored at 347 nm on a Hewlett Packard 8450A spectrophotometer, and using an extinction coefficient of 5.5×10^3 M^−1cm^−1 to calculate units of enzyme activity.
The peptide diphenyl phosphonates were tested in the colorimetric assay described in Example 3, for inhibition of TNFα convertase/PR-3 activity.

[5] = target: T4, recombinant PR-3 (rPR-3) (Homo sapiens, UniProt P24158); experiment: Residual recombinant PR-3 activity with Boc-Ala-ONp substrate; format: biochemical
T4 construct: made in house; host or cells: Sf9 insect cells (baculovirus, pAcC13preproPR-3)
T4 sequence (P24158 28-248 limits assumed): T1 sequence (P24158 28-248)
Protocol: Cytoplasmic anti-neutrophil cytoplasmic antibodies (c-ANCA) are human polyclonal antibodies derived from patients with Wegener's granulomatosis. […] Protein-A-purified human c-ANCA (supplied by Dr. Erik Hack, The Netherlands) was mixed with purified recombinant PR-3 (SEQ ID NO: 23) prepared as described above at various molar ratios of antibody to enzyme, and after incubation for 1 hour at 37° C., residual enzyme activity was measured using the Boc-Ala-ONp substrate as described in Example 4.
The two peptide diphosphonate inhibitors, Boc-Ala-Pro-Val-(OPh)2 and Boc-Val-Pro-Val-(OPh)2, were mixed at various concentrations with 125 ng of rPR-3 (prepared as described above) and incubated for 1 hour at 25° C. The residual enzyme activity was measured using the Boc-Ala-ONp substrate and compared to the same amount of enzyme incubated in the absence of inhibitor. Under these conditions, the Boc-Ala-Pro-Val-(OPh)2 inhibited PR-3 with an IC50 of about 10 μM and the Boc-Val-Pro-Val-(OPh)2 inhibited PR-3 with an IC50 of about 0.4 μM. […] Thus, recombinant PR-3 may be employed in detection of useful inhibitors of native PR-3.

[6] = target: T5, TNFα convertase from HL60 cells (Homo sapiens, UniProt P24158); experiment: 35S-labelled 26 kD TNFα in vitro transcription/translation autoradiographic convertase assay with HL60 convertase (P-30 fraction); format: biochemical; conditions: 5 mg/ml; 30° C., 1 hour; SDS-PAGE autoradiography
T5 construct: solution containing convertase activity partially purified from uninduced HL60 cells; endogenous in cells
T5 sequence (P24158 28-248): T1 sequence (P24158 28-248)
Source text: A preferred assay procedure consists of in vitro transcription/translation to produce the 26 kD molecule, followed by treatment with convertase in the presence or absence of compounds being tested for convertase inhibitory activity. The procedure entails in vitro transcription/translation of the TNFα cDNA present in the pGEM vector. Thus, the sequence was removed from pB11 by Pst I digestion and was inserted into the Pst I site of pGEM-3 (obtainable from Promega Biotec, Madison Wis.). The resulting plasmid, termed pGEM-TNFα14, was amplified in E. coli using established techniques, and plasmid DNA was prepared according to the procedure of Birnboim and Doly, described above. Plasmid DNA was transcribed in vitro by linearizing it with Hind III, and the linearized plasmid templates were used to prepare capped transcripts with T7 RNA polymerase and an in vitro transcription kit supplied by Promega Biotec (Madison, Wis.).
The mRNA produced above was translated in vitro in the presence of ^35S-cysteine to produce ^35S-cysteine-labelled 26 kD TNFα. A rabbit reticulocyte lysate translation kit was used, also supplied by Promega Biotec, and the conditions recommended by the manufacturer were followed.
as §1, with “The bound protein was eluted and electrophoresed using SDS-PAGE. The gel was fixed in 40% methanol, 10% acetic acid, soaked in Enlightening (Dupont), dried, and exposed to X-ray film which was subsequently developed.” left out

In the case of `O=S(=O)(F)Cc1ccccc1` [PMSF, phenylmethyl-sulfonyl fluoride], the “inhibition of PR-3” value [1] is given as “inhibited” and the “inhibition of TNFα convertase activity of purified PR-3” value ([2]; 20 μM) is given as “significant inhibitory activity”.

In the case of `CC(C)C(NC(=O)[C@@H]1CCCN1C(=O)[C@@H](NC(=O)OC(C)(C)C)C(C)C)P(=O)(Oc1ccccc1)Oc1ccccc1` (stereo partly drawn) [VPV, Boc-Val-Pro-Val-p(OPh)2], the “inhibition of PR-3” value [3] is reported as “inhibited”, the “inhibition of TNFα convertase/PR-3 activity” value ([4]; 35 μM) is reported as “demonstrated inhibitory activity” and the IC50 [5] is reported as roughly 400 nM.

In the case of `CC(C)C[C@H](NC(=O)N[C@H](C(=O)N[C@@H](CCC(N)=O)C(=O)N[C@@H](C)C=O)[C@@H]1CCNC(=N)N1)C(=O)O` [elastinal], the “inhibition of PR-3” value [3] is reported as “inhibited” and the “inhibition of the convertase (conversion of 26 kD TNFα)” value [6] is reported as “inhibit the convertase”.

In the case of AQAVRSSS, the “inhibition of convertase activity” value ([4]; 50 μM, Boc-Ala-ONp colorimetric assay with PR-3) is reported as “did not inhibit convertase activity significantly”.

For “α1-antitrypsin: protein reported to inhibit PR-3”, the “inhibition of PR-3” value [1] is listed as “inhibited”.

For “α-2-macroglobulin: proteinase inhibitor tested against purified PR-3”, the “inhibition of PR-3” value [1] is listed as “inhibited” and the “inhibition of TNFα convertase activity of purified PR-3” value ([2]; 1 mg/ml) is listed as “significant inhibitory activity”.
